This note sets out measurements from the Kinase Knowledgebase extract (Sharma et al. 2016).

In general, IC50 refers to the concentration needed to halve the response being measured.

SMILES strings stand for the structures.

Chain of EGFR (human) (P00533 whole entry, looked up): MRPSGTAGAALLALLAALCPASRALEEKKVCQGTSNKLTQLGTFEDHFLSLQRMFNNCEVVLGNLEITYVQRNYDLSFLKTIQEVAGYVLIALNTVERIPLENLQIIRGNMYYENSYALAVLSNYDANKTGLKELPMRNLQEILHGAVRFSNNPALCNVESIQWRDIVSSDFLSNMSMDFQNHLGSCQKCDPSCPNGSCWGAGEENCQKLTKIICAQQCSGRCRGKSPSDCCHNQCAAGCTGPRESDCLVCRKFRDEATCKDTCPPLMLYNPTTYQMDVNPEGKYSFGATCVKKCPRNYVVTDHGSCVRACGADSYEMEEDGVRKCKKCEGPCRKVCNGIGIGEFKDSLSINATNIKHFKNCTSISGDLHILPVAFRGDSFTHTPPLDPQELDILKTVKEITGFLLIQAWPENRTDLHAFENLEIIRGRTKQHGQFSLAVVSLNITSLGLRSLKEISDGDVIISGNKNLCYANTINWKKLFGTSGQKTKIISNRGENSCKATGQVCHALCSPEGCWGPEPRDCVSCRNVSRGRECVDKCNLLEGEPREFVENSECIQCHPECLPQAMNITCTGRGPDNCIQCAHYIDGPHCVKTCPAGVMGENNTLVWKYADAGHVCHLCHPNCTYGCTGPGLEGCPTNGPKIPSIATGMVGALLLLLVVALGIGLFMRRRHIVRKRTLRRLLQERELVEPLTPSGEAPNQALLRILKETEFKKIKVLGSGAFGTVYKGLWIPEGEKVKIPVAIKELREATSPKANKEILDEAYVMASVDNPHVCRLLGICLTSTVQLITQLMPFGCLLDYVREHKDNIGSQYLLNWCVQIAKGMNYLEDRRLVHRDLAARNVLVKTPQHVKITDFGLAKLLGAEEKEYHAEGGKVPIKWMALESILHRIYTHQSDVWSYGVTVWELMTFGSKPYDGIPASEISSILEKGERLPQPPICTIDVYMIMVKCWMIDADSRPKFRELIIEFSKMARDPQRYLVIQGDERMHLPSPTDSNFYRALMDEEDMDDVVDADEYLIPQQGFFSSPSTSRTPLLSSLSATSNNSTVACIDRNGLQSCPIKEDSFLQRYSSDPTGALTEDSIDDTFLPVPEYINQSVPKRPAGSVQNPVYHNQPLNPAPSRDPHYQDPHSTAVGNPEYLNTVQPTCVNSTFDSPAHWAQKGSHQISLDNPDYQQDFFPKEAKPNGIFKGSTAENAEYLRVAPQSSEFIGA

This assay has as its target EGFR (human) (UniProt P00533).
With `CC(C)(CO)NCc1ccc(-c2cc3nccc(Nc4ccc5[nH]ccc5c4)c3s2)cc1`, the IC50 is 8 nM. In other words, the single-digit nanomolar range.
The figure for `c1cn(CCCc2ccc(-c3cc4ncnc(Nc5ccc6[nH]ccc6c5)c4s3)cc2)cn1` is 1 nM; for `c1ccc(-c2cc3nccc(Nc4ccc5[nH]ccc5c4)c3s2)cc1` it is 68 nM.
The figure for `c1nc(Nc2ccc3[nH]ccc3c2)c2sc(-c3ccc(NCCN4CCCC4)cc3)cc2n1` is 1 nM.
The figure for `CC(=O)NCCNCc1ccc(-c2cc3ncnc(Nc4ccc5[nH]ccc5c4)c3s2)cc1` is 2 nM.
The compound `NC(=O)C1CCN(Cc2ccc(-c3cc4nccc(Nc5ccc6[nH]ccc6c5)c4s3)cc2)CC1` returned an IC50 of 7 nM.
The figure for `c1csc(-c2cc3nccc(Nc4ccc5[nH]ccc5c4)c3s2)c1` is 39 nM; for `c1cn(CCCc2ccc(-c3cc4nccc(Nc5ccc6[nH]ccc6c5)c4s3)cc2)cn1` it is 5 nM; for `CC(=O)NCCNCc1ccc(-c2cc3nccc(Nc4ccc5[nH]ccc5c4)c3s2)cc1` it is 5 nM.
Turning to `NC(=O)C1CCN(Cc2ccc(-c3cc4ncnc(Nc5ccc6[nH]ccc6c5)c4s3)cc2)CC1`, the IC50 is 1 nM.
